Experimental data published in US12152017B2, “Ketoamide compound and preparation method, pharmaceutical composition, and use thereof” (Shanghai Institute of Materia Medica, Chinese Academy of …, priority 2018, dated 2024).
Where “and” joins values, the source holds several entries; their conditions need not be identical. Equal entries are not always repeated. Where two headings read alike, the source gives them in different places.

Key:
MERS-CoV pseudovirus = experiment: microbe, parasite or virus in culture; assay type: cell-based; details: Middle East respiratory syndrome-related coronavirus, Huh-7, read-out: MERS-CoV pseudovirus inhibitory activity IC50
[1] = Pharmacokinetic study in CD-1 mice (gavage, intravenous, intraperitoneal); assay type: in vivo; details: 20 mg/kg; for Cmax / Tmax / half-life / AUC(0-inf) / AUC(0-t) / MRT inf: male, CD-1, mouse, plasma; for AUC(0-inf): read-out: AUC INF_obs; for MRT inf: read-out: MRT INF_obs
Method: Nine CD-1 mice, male, weighing 18-22 g, were randomly divided into 3 groups with 3 mice in each group. The test compounds were administered by gavage, intravenously and intraperitoneally according to the following schemes.
Before the test, they were fasted for 12 hours and were allowed to drink water freely, and were fed uniformly 2 h after administration.
There were 3 animals at each time point.
The solution for gavage administration was formulated with DMSO/0.5% HPMC (5/95, v/v) into the final concentration. Intravenous and intraperitoneal administration were formulated with DMSO/PEG300/EtOH/NaCl (5/40/5/50, v/v/v). Retention samples of the dosing solution (50 μL of the drug solution was taken and mixed well with 50 μL of DMSO before and after the administration) for testing.
The drug was administered according to the above dosage, the time of administration were recorded, and 20 μL of blood was collected from the mouse femoral plexus at the above set time point and placed in a heparinized test tube and centrifuged immediately at 11000 rpm for 5 min. 10 μL of plasma was immediately and accurately drawn into a centrifuge tube pre-filled with 100 μL of PK-IS solution (prepared with methanol:acetonitrile (1:1, v/v)), mixed well, and frozen to store at −20° C. for testing.

[2] = i.p. (20 mg/Kg per Table 3), individual animal
[3] = ip, i.p. (20 mg/Kg per Table 3), Mean of 3 mice
[4] = ip, i.p. (20 mg/Kg per Table 3), individual animal
[5] = po, p.o. (gavage 20 mg/Kg per Table 3), Mean of 3 mice
[6] = po, p.o. (gavage 20 mg/Kg per Table 3), individual animal
[7] = p.o. (gavage 20 mg/Kg per Table 3), individual animal

O=C(NCc1ccccc1)C(=O)[C@H](C[C@@H]1CCCNC1=O)NC(=O)[C@H](CC1CCCCC1)NC(=O)c1cc2ccccc2[nH]1 [Example A5]
IC50 (MERS-CoV pseudovirus): 0.5 ± 0.2 nM

O=C(NCc1ccccc1)C(=O)[C@H](C[C@@H]1CCNC1=O)NC(=O)[C@H](CC1CCCCC1)NC(=O)c1cc2ccccc2o1 [Example A9, N—((S)-1-(((S)-4-(benzylamino)-3,4-dione-1-((S)-2-oxopyrrolidine-3-yl)but-2-yl)amino)-3-cyclohexyl-1-oxopropan-2-yl)-benzofuran-2-carboxamide]
IC50 (MERS-CoV pseudovirus): 1 ± 0.7 nM | AUC INF_obs [1, 2]: 6825 ng·h/mL and 10574 ng·h/mL | AUC last [1, 2]: 6786 ng·h/mL and 10138 ng·h/mL | C max [1, 2]: 2859 ng/mL and 2364 ng/mL | MRT INF_obs [1, 2]: 2.70 h and 3.19 h and 6.07 h | T1/2 [1, 2]: 3.67 h and 5.11 h | T max [1, 2]: 0.75 h | Cmax [1, 3]: 2910 ng/mL | Tmax [1, 3]: 0.42 h | half-life [1, 3]: 4.02 h | AUC(0-inf) [1, 3]: 8360 ng·h/mL | AUC(0-t) ([1]; ip, i.p. (20 mg/Kg per Table 3), Mean of 3 mice, read-out: AUC last (exposure for intraperitoneal injection)): 8190 ng·h/mL | MRT inf [1, 3]: 3.99 h | Cmax [1, 4]: 3520 ng/mL | half-life [1, 4]: 3.28 h | AUC(0-inf) [1, 4]: 7670 ng·h/mL | AUC(0-t) ([1]; ip, i.p. (20 mg/Kg per Table 3), individual animal, read-out: AUC last): 7650 ng·h/mL | Cmax [1, 5]: 498 ng/mL | Tmax [1, 5]: 0.25 h | half-life [1, 5]: 1.27 h | AUC(0-inf) [1, 5]: 589 ng·h/mL | AUC(0-t) ([1]; po, p.o. (gavage 20 mg/Kg per Table 3), Mean of 3 mice, read-out: AUC last (oral exposure)): 584 ng·h/mL | MRT inf [1, 5]: 1.77 h | Tmax [1, 6]: 0.25 h | half-life [1, 6]: 1.13 h | MRT inf [1, 6]: 1.35 h | AUC INF_obs [1, 7]: 451 ng·h/mL and 1146 ng·h/mL and 171 ng·h/mL | AUC last [1, 7]: 447 ng·h/mL and 1143 ng·h/mL and 163 ng·h/mL | C max [1, 7]: 546 ng/mL and 864 ng/mL and 84 ng/mL | MRT INF_obs [1, 7]: 1.33 h and 2.63 h | T1/2 [1, 7]: 0.91 h and 1.77 h

O=C(NC1CCCCC1)C(=O)[C@H](C[C@@H]1CCCNC1=O)NC(=O)[C@H](CC1CCCCC1)NC(=O)c1cc2ccccc2o1 [Example A15]
IC50 (MERS-CoV pseudovirus): < 0.1 nM

O=C(NCc1ccccc1)C(=O)[C@H](C[C@@H]1CCCNC1=O)NC(=O)[C@H](CC1CCCCC1)NC(=O)c1cc2ccccc2s1 [Example A21]
IC50 (MERS-CoV pseudovirus): 8.2 ± 3.2 nM

Cn1c(C(=O)N[C@@H](CC2CCCCC2)C(=O)N[C@@H](C[C@@H]2CCNC2=O)C(=O)C(=O)NC(C)(C)C)cc2ccccc21 [Example A25]
IC50 (MERS-CoV pseudovirus): 407 ± 352 nM

Cn1c(C(=O)N[C@@H](CC2CCCCC2)C(=O)N[C@@H](C[C@@H]2CCNC2=O)C(=O)C(=O)NC2CCCCC2)cc2ccccc21 [Example A26, N—((S)-3-cyclohexyl-1-(((S)-4-(cyclohexylamino)-3,4-dione-1-((S)-2-oxopyrrolidine-3-yl)but-2-yl)amino)-3-cyclohexyl-1-oxopropan-2-yl)-1-methyl-1H-indole-2-carboxamide]
IC50 (MERS-CoV pseudovirus): 7.8 ± 3.5 nM

Cn1c(C(=O)N[C@@H](CC2CCCCC2)C(=O)N[C@@H](C[C@@H]2CCCNC2=O)C(=O)C(=O)NCc2ccccc2)cc2ccccc21 [Example A27]
IC50 (MERS-CoV pseudovirus): 8 ± 4 nM

CC(C)(C)NC(=O)C(=O)[C@H](C[C@@H]1CCNC1=O)NC(=O)[C@H](CC1CCCCC1)NC(=O)c1ccc2ccccc2n1 [Example A43]
IC50 (MERS-CoV pseudovirus): 786 ± 458 nM

O=C(NC1CCCCC1)C(=O)[C@H](C[C@@H]1CCNC1=O)NC(=O)[C@H](CC1CCCCC1)NC(=O)c1ccc2ccccc2n1 [Example A44, N—((S)-3-cyclohexyl-1-(((S)-4-(cyclohexylamino)-3,4-dione-1-((S)-2-oxopyrrolidine-3-yl)but-2-yl)amino)-3-cyclohexyl-1-oxopropan-2-yl)-quinoline-2-carboxamide]
IC50 (MERS-CoV pseudovirus): 18 ± 5.6 nM

O=C(NCc1ccccc1)C(=O)[C@H](C[C@@H]1CCCNC1=O)NC(=O)[C@H](Cc1ccccc1)NC(=O)c1cc2ccccc2[nH]1 [Example A51, N—((S)-1-(((S)-4-(benzylamino)-3,4-dione-1-((S)-2-oxopiperidine-3-yl)but-2-yl)amino)-1-oxo-3-phenylpropan-2-yl)-1H-indole-2-carboxamide]
IC50 (MERS-CoV pseudovirus): < 0.1 nM

O=C(NCc1ccccc1)C(=O)[C@H](C[C@@H]1CCCNC1=O)NC(=O)[C@H](Cc1ccccc1)NC(=O)c1cnc2ccccc2n1 [Example A81, N—((S)-1-(((S)-4-(benzylamino)-3,4-dione-1-((S)-2-oxopiperidine-3-yl)but-2-yl)amino)-1-oxo-3-phenylpropan-2-yl)-quinoxaline-2-carboxamide]
IC50 (MERS-CoV pseudovirus): 0.2 ± 0.1 nM

CC(C)NC(=O)CC[C@H](NC(=O)[C@H](CC1CCCCC1)NC(=O)c1cc2ccccc2[nH]1)C(=O)C(=O)NCc1ccccc1 [Example A232, N—((S)-1-(((S)-4-(benzyl)-3,4-dione-1-(isopropylamino)-2-yl)amino)-3-(cyclohexyl)-1-oxopropan-2-yl)-1H-indole-2-carboxamide]
IC50 (MERS-CoV pseudovirus): 13.4 ± 3 nM

CC(C)NC(=O)CC[C@H](NC(=O)[C@H](CC1CCCCC1)NC(=O)c1cnc2ccccc2n1)C(=O)C(=O)NCc1ccccc1 [Example A236, N—((S)-1-(((S)-4-(benzyl)-3,4-dione-1-(isopropylamino)-2-yl)amino)-3-(cyclohexyl)-1-oxopropan-2-yl)-quinoxaline-2-carboxamide]
IC50 (MERS-CoV pseudovirus): 16.6 ± 4 nM

O=C(NCc1ccccc1)C(=O)[C@H](C[C@@H]1CCCNC1=O)NC(=O)[C@H](CC1CCCCC1)NC(=O)c1cc2ccc(F)cc2[nH]1 [Example A240]
IC50 (MERS-CoV pseudovirus): 15.9 ± 7 nM

O=C(NCc1ccccc1)C(=O)[C@H](C[C@@H]1CCCNC1=O)NC(=O)C(CC1CCCCC1)NC(=O)c1ccc2c(c1)OCO2 (stereo partly shown) [Example A243]
IC50 (MERS-CoV pseudovirus): 10.7 ± 0.8 nM

O=C(NCc1ccccc1)C(=O)[C@H](C[C@@H]1CCCNC1=O)NC(=O)C(CC1CCCCC1)NC(=O)c1nc2ccccc2[nH]1 (stereo partly shown) [Example A244]
IC50 (MERS-CoV pseudovirus): 12.6 ± 12.2 nM

COc1cccc2cc(C(=O)NC(CC3CCCCC3)C(=O)N[C@@H](C[C@@H]3CCCNC3=O)C(=O)C(=O)NCc3ccccc3)oc12 (stereo partly shown) [Example A245]
IC50 (MERS-CoV pseudovirus): 18.4 ± 8 nM

Cc1c(C(=O)NC(CC2CCCCC2)C(=O)N[C@@H](C[C@@H]2CCCNC2=O)C(=O)C(=O)NCc2ccccc2)oc2ccccc12 (stereo partly shown) [Example A246]
IC50 (MERS-CoV pseudovirus): 10.8 ± 10 nM

Cc1ccc2oc(C(=O)NC(CC3CCCCC3)C(=O)N[C@@H](C[C@@H]3CCCNC3=O)C(=O)C(=O)NCc3ccccc3)c(C)c2c1 (stereo partly shown) [Example A247]
IC50 (MERS-CoV pseudovirus): 1.7 ± 0.4 nM

COc1ccc(OC)c2oc(C(=O)NC(CC3CCCCC3)C(=O)N[C@@H](C[C@@H]3CCCNC3=O)C(=O)C(=O)NCc3ccccc3)cc12 (stereo partly shown) [Example A248]
IC50 (MERS-CoV pseudovirus): 8.4 ± 1.7 nM

O=C(NCc1ccccc1)C(=O)[C@H](C[C@@H]1CCCNC1=O)NC(=O)C(CC1CCCCC1)NC(=O)c1coc2ccccc12 (stereo partly shown) [Example A249]
IC50 (MERS-CoV pseudovirus): 0.6 ± 0.2 nM

O=C(NCc1ccccc1)C(=O)[C@H](C[C@@H]1CCCNC1=O)NC(=O)C(CC1CCCCC1)NC(=O)C1=Cc2cc(Cl)ccc2OC1 (stereo partly shown) [Example A250]
IC50 (MERS-CoV pseudovirus): 0.7 ± 0.1 nM
